# PMC9604255, “Discovery of Simple Diacylhydrazine-Functionalized Cinnamic Acid Derivatives as Potential Microtubule Stabilizers” (International Journal of Molecular Sciences, 2022)
# Like-named read-outs stand apart in the source and are kept apart here.
# Legend:
# HepG2 cancer cells = test: MTT antiproliferative assay, HepG2; assay type: cell-based, human; conditions: read-out: IC50 HepG2
# Excerpt: (§1) An A549 (human non-small cell lung cancer cell line) cell line was purchased from the Shanghai Cell Bank of the Chinese Academy of Sciences; PC-3 (human prostate cancer cell line) cell line was donated by the Key Laboratory of Natural Product Chemistry of the Chinese Academy of Sciences of Guizhou Province; HepG2 (human liver cancer cell line) and NRK 52E (normal rat kidney cell line) cell line was donated by Guizhou Medical University; all cell lines were kept by the laboratory.
# (§2) The antiproliferative activity of target compounds against A549, PC-3, HepG2, and NRK-52E were determined by MTT assay, as described in previous articles. The assay was recorded at 490 nm by an Infinite® M200 PRO multimode microplate (Tecan, Männedorf, Switzerland).
# A549 cancer cells = test: MTT antiproliferative assay, A549; assay type: cell-based, human; conditions: MTT assay after 48 h
# Excerpt: as §1, §2
# PC-3 cancer cells = test: MTT antiproliferative assay, PC-3; assay type: cell-based, human; conditions: MTT assay after 48 h
# Excerpt: as §1, §2
# NRK-52E cells = test: MTT cytotoxicity assay, normal NRK-52E cells; assay type: cell-based; conditions: MTT assay after 48 h, normal rat kidney cell line
# Excerpt: as §1, §2
# A549 cells = test: Scratch test (cell migration); assay type: cell-based, human
# Description: According to the previous methods, A549 cells of the logarithmic growth stage were cultured in 6-well plates with two lines on the back, with each well containing a density of 1 × 10^6 cells/mL. After the cells adhered to the wall, three uniform thin lines were drawn in each well by a sterile pipette tip. Afterward, the medium containing 1% fetal bovine serum (FBS) and various concentrations of compounds were added in wells. After the different time of incubation, the cells were performed by an inverted fluorescence microscope. Then the scratch healing rate was calculated: Migration distance (n h) = edge distance (0 h) − edge distance (12 h or 24 h).
# HepG2 cells [1] = test: Hoechst apoptosis experiment; assay type: cell-based, human; conditions: HepG2, 6 μM, 24 h
# Description: In this assay, HepG2 cells were seeded in 6-well plates, after 24 h of incubation, different compounds were added at various concentrations, and cells were incubated again for 24 h. Afterward, the medium was removed and cells were washed twice with phosphate-buffered saline (PBS, 10 mM, pH 7.3), and fixed with 4% paraformaldehyde for 15 min at room temperature, then stained with […] Hoechst 33258 in PBS for 20 min at 37 °C in the dark. After incubation, the cells were incubated with an anti-fluorescent attenuator and imaged with an inverted fluorescence microscope.
# tubulin [2] = test: Tubulin polymerization via TEM; assay type: biochemical; conditions: 20 μM + 4 mg/mL tubulin
# Description: Briefly, according to the protocol of tubulin polymerization assay, the 100 μL centrifuge tubes were pre-warmed at 37 °C, and the reaction assay contained 20 μL 4 mg/mL tubulin in G-PEM buffer. Then, 2 μL (10×) compounds solution was added. Finally, the assay was carried out at 37 °C for 30 min. The formed microtubules were transferred to Formvar-caron-coated copper grids, negatively stained with 1% phosphotungstic acid, and visualized under a transmission electron microscope.
# [3] = test system: cellular microtubule network of HepG2 cells; test: Immunofluorescence staining of tubulin; assay type: cell-based, human; conditions: 3 and 6 μM, 24 h
# Description: According to the previous methods, compound solutions of various concentrations were added to a 6-well plate in which HepG2 cells had been seeded for 12 h. After incubation for 24 h and washed with phosphate-buffered saline (PBS, 10 mM, pH 7.3), each well was treated with 4% formaldehyde solution for 15 min and washed with 0.1% Triton X-100 of phosphate-buffered saline (PBS, 10 mM, pH 7.3). After that, the fixed cells were incubated with diluted tubulin-tracker red for 40 min in a dark environment, followed by washing three times by 0.1% Triton X-100 of phosphate-buffered saline (PBS, 10 mM, pH 7.3). Finally, each well was added DAPI (2 μg/mL). Finally, the results were observed using a Nikon ECLIPSE Ti-S fluorescent microscope (Nikon Co, Tokyo, Japan).
# HepG2 cells [4] = test: Cell cycle analysis by flow cytometry; assay type: cell-based, human; conditions: HepG2, 24 μM, 24 h (0 μM: 17.68%)
# Description: The cells in the 6-well plates were carefully collected 24 h after dosing. After the cells were washed with pre-cooled PBS, the pre-cooled 70% ethanol solution was added for fixation (4 °C overnight). After that, the cells were washed with PBS, and incubated with 1 mg/mL RNase A for 30 min at 37 °C). Then, […] PI staining solution was added and incubated in the dark for 30 min at 4 °C. Finally, the cell arrest was analyzed by the FACSCalibur™ flow cytometer (Becton Dickinson Immunocytometry Systems, San Jose, CA, USA) as previously described.
# [5] = test system: A549, PC-3 and HepG2 cancer cell lines; test: MTT antiproliferative assay, three cancer lines together; assay type: cell-based; conditions: Homo sapiens; range over A549, PC-3 and HepG2; read-out: IC50 values against three cancer lines
# Excerpt: as §1, with “laboratory. Cells were maintained in RPMI 1640 or DMEM complete medium.” for “laboratory.”
# as §2, with “Switzerland). Curcumin, gefitinib, and colchicine were used as positive controls.” for “Switzerland).”
# tubulin [6] = molecular target: T1, tubulin (Sus scrofa, UniProt P02554); test: Tubulin polymerization assay in vitro; assay type: biochemical; conditions: 10 μM and 20 μM; 4 mg/mL tubulin, 37 °C, 340 nm
# T1 construct: purchased Cytoskeleton, Inc. BK004P
# T1 sequence (P02554 whole entry): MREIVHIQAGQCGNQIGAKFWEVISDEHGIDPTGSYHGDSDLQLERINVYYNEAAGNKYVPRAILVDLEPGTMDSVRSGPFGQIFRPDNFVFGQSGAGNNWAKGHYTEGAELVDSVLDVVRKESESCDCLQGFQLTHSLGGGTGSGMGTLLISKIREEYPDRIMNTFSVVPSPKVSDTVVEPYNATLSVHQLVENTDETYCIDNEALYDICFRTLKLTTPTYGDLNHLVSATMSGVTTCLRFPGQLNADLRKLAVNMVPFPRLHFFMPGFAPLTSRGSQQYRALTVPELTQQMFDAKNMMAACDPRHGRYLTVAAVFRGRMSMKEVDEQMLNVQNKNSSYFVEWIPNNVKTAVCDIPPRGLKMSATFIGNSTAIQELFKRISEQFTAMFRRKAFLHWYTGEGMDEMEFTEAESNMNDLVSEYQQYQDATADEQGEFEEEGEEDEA
# T1 sequence (P02550 whole entry partner): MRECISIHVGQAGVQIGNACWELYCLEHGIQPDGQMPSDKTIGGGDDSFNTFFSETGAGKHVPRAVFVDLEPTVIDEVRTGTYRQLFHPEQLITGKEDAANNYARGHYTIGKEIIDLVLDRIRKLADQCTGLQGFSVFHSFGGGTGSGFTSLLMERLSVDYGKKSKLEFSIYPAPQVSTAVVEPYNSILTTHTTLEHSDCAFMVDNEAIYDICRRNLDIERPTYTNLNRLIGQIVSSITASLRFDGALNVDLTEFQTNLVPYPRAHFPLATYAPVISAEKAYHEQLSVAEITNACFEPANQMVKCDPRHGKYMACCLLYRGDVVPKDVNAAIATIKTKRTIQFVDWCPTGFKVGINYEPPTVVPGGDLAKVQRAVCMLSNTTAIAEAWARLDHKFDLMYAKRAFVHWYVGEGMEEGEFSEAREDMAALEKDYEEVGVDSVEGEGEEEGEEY
# Description: The tubulin polymerization assay in vitro was determined by HTS-Tubulin Polymerization Assay Kit (#BK004P, Cytoskeleton, Inc., Denver, CO, USA) as described in previous articles. The plate was pre-warmed at 37 °C, and the reaction assay contained 100 μL 4 mg/mL tubulin in G-PEM buffer. Then, 10 μL (10×) compounds solution or 100 μM paclitaxel solution as a control. Finally, the polymerization was carried out at 37 °C and recorded at 340 nm each 10 s for 70 min using Cytation™ 5 multi-mode readers.
# [7] = A549, 6 μM, 12 h (control 12.5%)
# [8] = A549, 6 μM, 24 h (control 24.4%)
# [9] = Homo sapiens, HepG2, 48 h, MTT assay after 48 h
Compound,"IC50 (A549 cancer cells; Homo sapiens, A549) [µM]",IC50 (PC-3 cancer cells; Homo sapiens) [µM],IC50 (HepG2 cancer cells; [9]) [µM],also measured
"COc1cc(/C=C/C(=O)CC(=O)/C=C/c2ccc(O)c(OC)c2)ccc1O [Curcumin, reference compound]",69.6 ± 1.18,73.4 ± 4.99,–,"IC50 (HepG2 cancer cells; Homo sapiens, HepG2, 48 h): 40.2 ± 1.74 µM; IC50 (NRK-52E cells): > 300 µM"
"COc1cc2ncnc(Nc3ccc(F)c(Cl)c3)c2cc1OCCCN1CCOCC1 [Gefitinib, reference compound]",–,–,–,Cell relative migration (migration rate) (A549 cells; [7]): 3.98%; Cell relative migration (migration rate) (A549 cells; [8]): 7.97%
O=C(/C=C/c1ccccc1)NNC(=O)/C=C/c1ccccc1 [I1],26.7 ± 0.43,5.95 ± 1.52,8.17 ± 0.46,–
O=C(/C=C/c1ccccc1)NNC(=O)/C=C/c1ccccc1Cl [I3],6.48 ± 0.41,7.38 ± 0.24,9.53 ± 1.74,–
O=C(/C=C/c1ccccc1)NNC(=O)/C=C/c1cccc([N+](=O)[O-])c1 [I4],6.05 ± 0.08,15.8 ± 1.67,6.32 ± 1,–
O=C(/C=C/c1ccccc1)NNC(=O)/C=C/c1ccc([N+](=O)[O-])cc1 [I7],4.17 ± 0.93,8.79 ± 3.19,7.63 ± 1.75,IC50 (NRK-52E cells): 21 ± 1.75 µM
Cc1ccc(/C=C/C(=O)NNC(=O)/C=C/c2ccccc2)cc1 [I10],19.5 ± 4.95,70.3 ± 9.88,23.6 ± 2.67,–
CCOc1ccc(/C=C/C(=O)NNC(=O)/C=C/c2ccccc2)cc1 [I13],15 ± 4.9,22.5 ± 2.64,15.4 ± 0.93,–
CN(C)c1ccc(/C=C/C(=O)NNC(=O)/C=C/c2ccccc2)cc1 [I14],12.8 ± 0.6,7.81 ± 1.69,3.42 ± 0.49,IC50 (NRK-52E cells): 7 ± 0.3 µM
O=C(/C=C/c1ccccc1)NNC(=O)/C=C/C1CC1 [I16],16.4 ± 0.98,80.5 ± 5.43,78.5 ± 1.39,–
O=C(/C=C/c1ccccc1)NNC(=O)/C=C/c1ccco1 [I17],13 ± 2.4,36 ± 0.7,34.5 ± 0.28,–
O=C(/C=C/c1ccccc1)NNC(=O)/C=C/c1cccs1 [I18],13.8 ± 0.29,15.9 ± 1.14,21.1 ± 3.76,–
Cc1ncsc1/C=C/C(=O)NNC(=O)/C=C/c1ccccc1 [I19],26.6 ± 5.08,96.4 ± 8.36,89.3 ± 8.89,–
O=C(/C=C/c1ccccc1)NNC(=O)/C=C/c1cccnc1 [I22],60.2 ± 2.37,159 ± 5.88,43.3 ± 1.1,–
"COc1ccc(/C=C/C(=O)NNC(=O)/C=C/c2ccc([N+](=O)[O-])cc2)cc1 [I24, (E)-3-(4-methoxyphenyl)-N'-((E)-3-(4-nitrophenyl)acryloyl)acrylohydrazide]",5.17 ± 0.41,15.7 ± 2.98,8.08 ± 2.25,–
(E)-3-(3-methoxyphenyl)-N'-((E)-3-(3-methoxyphenyl)acryloyl)acrylohydrazide [I25],–,–,–,IC50 (HepG2 cancer cells; MTT assay after 48 h): 80 ± 4.04 µM; IC50 (A549 cancer cells): 144 ± 8.95 µM; IC50 (PC-3 cancer cells): 142 ± 6.79 µM

# More lines, main results first:
"IC50 (A549 cancer cells; Homo sapiens, A549) [µM]",IC50 (PC-3 cancer cells; Homo sapiens) [µM],IC50 (HepG2 cancer cells; [9]) [µM],Compound,also measured
7.55 ± 1.22,8.08 ± 2.24,9.33 ± 0.95,O=C(/C=C/c1ccccc1)NNC(=O)/C=C/c1ccccc1[N+](=O)[O-] [I2],–
5.09 ± 0.08,6.68 ± 0.96,8.69 ± 1.04,O=C(/C=C/c1ccccc1)NNC(=O)/C=C/c1cccc(O)c1 [I5],IC50 (NRK-52E cells): 50 ± 4.4 µM
41 ± 4.47,160 ± 10.9,46.8 ± 0.14,COc1cccc(/C=C/C(=O)NNC(=O)/C=C/c2ccccc2)c1 [I6],–
9.57 ± 1.92,63.2 ± 3.86,6.98 ± 1.3,O=C(/C=C/c1ccccc1)NNC(=O)/C=C/c1ccc(Cl)cc1 [I8],–
24.9 ± 1.54,4.68 ± 0.69,7.63,O=C(/C=C/c1ccccc1)NNC(=O)/C=C/c1ccc(F)cc1 [I9],IC50 (HepG2 cancer cells; MTT assay after 48 h): 4.75 ± 0.36 µM
43 ± 7.3,19.2 ± 6.57,18.6 ± 3.9,CC(C)c1ccc(/C=C/C(=O)NNC(=O)/C=C/c2ccccc2)cc1 [I11],–
10.9 ± 0.25,39.4 ± 3.54,21.1 ± 4.07,COc1ccc(/C=C/C(=O)NNC(=O)/C=C/c2ccccc2)cc1 [I12],–
35.8 ± 0.59,> 300,31.1 ± 7.66,COc1cc(/C=C/C(=O)NNC(=O)/C=C/c2ccccc2)ccc1O [I15],–
16.3 ± 3.25,21.8 ± 3.15,> 300,O=C(/C=C/c1ccccc1)NNC(=O)/C=C/C1CCCCC1 [I20],–
8.27 ± 0.8,21.6 ± 0.89,20.4 ± 0.86,O=C(/C=C/c1ccccc1)NNC(=O)/C=C/C1CC=CCC1 (stereo not drawn) [I21],–
5.99 ± 1.07,4.17 ± 0.57,3.36 ± 0.8,COc1cccc(/C=C/C(=O)NNC(=O)/C=C/c2ccc([N+](=O)[O-])cc2)c1 [I23],"Apoptosis effect (Hoechst 33258 staining) (HepG2 cells [1]): a strong apoptotic phenomenon happened; Effect on tubulin polymerization seen by TEM (tubulin [2]): more large nonlinear disorganized aggregations; Effect on cellular microtubule network (immunofluorescence) [3]: agminated microtubule network and wrinkled nucleus were observed; Percentage of cell, G2/M (HepG2 cells [4]): 20.56%; Cell relative migration (migration rate) (A549 cells; A549, 3 μM, 12 h (control 12.5%)): 8.93%; Cell relative migration (migration rate) (A549 cells; A549, 3 μM, 24 h (control 24.4%)): 18.7%; Cell relative migration (migration rate) (A549 cells; [7]): 6.07%; Cell relative migration (migration rate) (A549 cells; [8]): 13.2%; IC50 [5]: 3.36 to 5.99 µM; IC50 (NRK-52E cells): 6.99 ± 1.6 µM; Effect on tubulin polymerization (tubulin [6]): could stabilize tubulin assembly and promote protofilament assembly in a dosage-dependent manner"
11 ± 1.72,21 ± 2.32,14.5 ± 2.56,COc1cccc(/C=C/C(=O)NNC(=O)/C=C/c2cccc(OC)c2)c1 [I26],–
